# Test results taken from patent publication US4563472A, “Iodoallyl and iodopropargyl substituted tetrazoles and anti-microbial compositions thereof” (Meiji Seika Kaisha, Ltd., priority 1982, dated 1986).
# Like-named read-outs stand apart in the source and are kept apart here.
# Legend:
# [1] = system: Xanthomonas campestris pv. citri; experiment: Antibacterial and Antifungal Activities (in Agricultural Field), MIC; type: cell-based; conditions: read-out: Minimal Inhibitory Conc. (MIC)
# [2] = system: Trichophyton metagrophytes 530324; experiment: Antifungal Activity (in Medicinal Field), MIC; type: cell-based; conditions: Trichophyton metagrophytes 530324; read-out: Minimal Inhibitory Conc. (MIC)
# Botrytis cinerea = experiment: Antibacterial and Antifungal Activities (in Agricultural Field), MIC; type: cell-based; conditions: read-out: Minimal Inhibitory Conc. (MIC)
# Cochliobolus miyabeanus = experiment: as above; type: cell-based; conditions: Bipolaris oryzae, read-out: Minimal Inhibitory Conc. (MIC)
# [3] = system: Serratia marcescens MB-3848; experiment: Antibacterial Activity (in medicinal field), MIC; type: cell-based; conditions: MB3848, read-out: Minimal Inhibitory Conc. (MIC)
# [4] = system: Trichoderma T-1 ATCC 9645; experiment: Antifungal Activity (in Industrial Field), MIC; type: cell-based; conditions: ATCC9645, read-out: Minimal Inhibitory Conc. (MIC)
# [5] = system: Trichophyton interdigitale; experiment: Antifungal Activity (in Medicinal Field), MIC; type: cell-based; conditions: read-out: Minimal Inhibitory Conc. (MIC)
# [6] = system: Cryptococcus neoformans Cr-1; experiment: Antifungal Activity (in Medicinal Field), MIC; type: cell-based; conditions: CR1, read-out: Minimal Inhibitory Conc. (MIC)
# Phricularia oryzae = experiment: Antibacterial and Antifungal Activities (in Agricultural Field), MIC; type: cell-based; conditions: read-out: Minimal Inhibitory Conc. (MIC)
# [7] = system: Trichophyton mentagrophytes; experiment: Reducing culture positive rate of skin slices from infected guinea pigs; type: in vivo, guinea pigs (White Hartly-strain); design: concentration or dose not given beside the values; conditions: after 8 days application, non-treated 100
# [8] = system: Pseudomonas cepacia M-0527; experiment: Antibacterial Activity (in medicinal field), MIC; type: cell-based; conditions: Burkholderia cepacia, M0527, read-out: Minimal Inhibitory Conc. (MIC)
# [9] = system: Pseudomonas syringae pv. tabaci; experiment: Antibacterial and Antifungal Activities (in Agricultural Field), MIC; type: cell-based; conditions: read-out: Minimal Inhibitory Conc. (MIC)
# [10] = system: Aspergillus fumigatus Saito; experiment: Antifungal Activity (in Medicinal Field), MIC; type: cell-based; conditions: read-out: Minimal Inhibitory Conc. (MIC)
# [11] = system: Xanthomonas campestris pv. oryzae; experiment: microbe, parasite or virus in culture; type: cell-based; conditions: read-out: Minimal Inhibitory Conc. (MIC)
# Gibberella fujikuroi = experiment: Antibacterial and Antifungal Activities (in Agricultural Field), MIC; type: cell-based; conditions: Fusarium fujikuroi, read-out: Minimal Inhibitory Conc. (MIC)
# [12] = system: Shigella sonnei EW 33 Type I; experiment: Antibacterial Activity (in medicinal field), MIC; type: cell-based; conditions: EW33TYPEI, read-out: Minimal Inhibitory Conc. (MIC)
# [13] = system: Corynebacterium michiganense; experiment: Antibacterial and Antifungal Activities (in Agricultural Field), MIC; type: cell-based; conditions: Clavibacter michiganensis, read-out: Minimal Inhibitory Conc. (MIC)
# [14] = system: Colletotrichum lagenarium; experiment: as above; type: cell-based; conditions: Colletotrichum orbiculare, read-out: Minimal Inhibitory Conc. (MIC)
# Glomerella cingulata = experiment: as above; type: cell-based; conditions: Colletotrichum gloeosporioides, read-out: Minimal Inhibitory Conc. (MIC)
# Mucor spinescens IAM Mu3 = experiment: Antifungal Activity (in Industrial Field), MIC; type: cell-based; conditions: IAMMU3, read-out: Minimal Inhibitory Conc. (MIC)
# [15] = system: Chaetomium globosum ATCC 6205; experiment: Antifungal Activity (in Industrial Field), MIC; type: cell-based; conditions: ATCC6205, read-out: Minimal Inhibitory Conc. (MIC)
# [16] = system: Cladosporium herbarum IAM F-517; experiment: Antifungal Activity (in Industrial Field), MIC; type: cell-based; conditions: IAMF517, read-out: Minimal Inhibitory Conc. (MIC)
# [17] = system: Trichophyton mentagrophytes; experiment: Therapeutic experiment on trichophytosis in guinea pigs, visual observation; type: in vivo, guinea pigs (White Hartly-strain); conditions: 1% preparation, 0.25 ml once per day, 8 consecutive days
# [18] = system: Staphylococcus faecalis ATCC 8043; experiment: Antibacterial Activity (in medicinal field), MIC; type: cell-based; conditions: ATCC8043, read-out: Minimal Inhibitory Conc. (MIC)
# [19] = system: Staphylococcus epidermidis ATCC 14990; experiment: Antibacterial Activity (in medicinal field), MIC; type: cell-based
# Erwinia carotovora = experiment: Antibacterial and Antifungal Activities (in Agricultural Field), MIC; type: cell-based; conditions: Pectobacterium carotovorum, read-out: Minimal Inhibitory Conc. (MIC)
# Pellicularia filamentosa = experiment: as above; type: cell-based; conditions: read-out: Minimal Inhibitory Conc. (MIC)
# [20] = system: Staphylococcus aureus 209P JC-1; experiment: Antibacterial Activity (in medicinal field), MIC; type: cell-based; conditions: read-out: Minimal Inhibitory Conc. (MIC)
# [21] = system: Escherichia coli NIHJ JC-2; experiment: Antibacterial Activity (in medicinal field), MIC; type: cell-based; conditions: NIHJJC2, read-out: Minimal Inhibitory Conc. (MIC)
# Diaporithe citri = experiment: Antibacterial and Antifungal Activities (in Agricultural Field), MIC; type: cell-based; conditions: read-out: Minimal Inhibitory Conc. (MIC)
# [22] = system: Aspergillus terreus PQMD 82 j; experiment: Antifungal Activity (in Industrial Field), MIC; type: cell-based; conditions: PQMD82J, read-out: Minimal Inhibitory Conc. (MIC)
# Proteus vulgaris OX-19 = experiment: Antibacterial Activity (in medicinal field), MIC; type: cell-based; conditions: OX19, read-out: Minimal Inhibitory Conc. (MIC)
# [23] = system: Aspergillus flavus ATCC 6275; experiment: Antifungal Activity (in Industrial Field), MIC; type: cell-based; conditions: ATCC6275, read-out: Minimal Inhibitory Conc. (MIC)
# [24] = system: Pullularia pullulans IAM F-24; experiment: Antifungal Activity (in Industrial Field), MIC; type: cell-based; conditions: IAMF24; Pullularia pullulans IAM F-24; read-out: Minimal Inhibitory Conc. (MIC)
# Alternaria kikuchiana = experiment: Antibacterial and Antifungal Activities (in Agricultural Field), MIC; type: cell-based; conditions: read-out: Minimal Inhibitory Conc. (MIC)
# [25] = system: Penicillium luteum ATCC 9644; experiment: Antifungal Activity (in Industrial Field), MIC; type: cell-based; conditions: Ascospirella lutea, ATCC9644, read-out: Minimal Inhibitory Conc. (MIC)
# [26] = system: Aspergillus fumigatus IAM 2621; experiment: Antifungal Activity (in Industrial Field), MIC; type: cell-based; conditions: IAM2621, read-out: Minimal Inhibitory Conc. (MIC)
# [27] = system: Fusarium oxysporum f. lycopersici; experiment: Antibacterial and Antifungal Activities (in Agricultural Field), MIC; type: cell-based; conditions: read-out: Minimal Inhibitory Conc. (MIC)
# Candida alubicans GA-24 = experiment: Antifungal Activity (in Medicinal Field), MIC; type: cell-based; conditions: GA24; Candida alubicans GA-24; read-out: Minimal Inhibitory Conc. (MIC)
# [28] = system: Klebsiella pneumoniae PCI-602; experiment: Antibacterial Activity (in medicinal field), MIC; type: cell-based; conditions: PCI602, read-out: Minimal Inhibitory Conc. (MIC)
# [29] = Staphylococcus epidermidis, ATCC14990, read-out: Minimal Inhibitory Conc. (MIC)
structure (smiles),measurement,setting,value
"O=[N+]([O-])c1cn(CC(I)=C(I)I)c(Cl)c1Cl [1-(2',3',3'-triiodoallyl)-2,3-dichloro-4-nitropyrrole]",MIC,[1],> 50 µg/mL
same,MIC,[2],0.19 µg/mL
same,MIC,Botrytis cinerea,12.5 µg/mL
same,MIC,Cochliobolus miyabeanus,50 µg/mL
same,MIC,[3],6.25 µg/mL
same,MIC,[4],6.25 µg/mL
same,MIC,[5],1.56 µg/mL
same,MIC,[6],0.19 µg/mL
same,MIC,Phricularia oryzae,6.25 µg/mL
same,Reducing Culture Positive Rate,[7]; 3 days culture,0%
same,Reducing Culture Positive Rate,[7]; 5 days culture,16.7%
same,Reducing Culture Positive Rate,[7]; 7 days culture,16.7%
same,MIC,[8],6.25 µg/mL
same,MIC,[9],> 50 µg/mL
same,MIC,[10],0.19 µg/mL
same,MIC,[11],> 50 µg/mL
same,MIC,Gibberella fujikuroi,3.12 µg/mL
same,MIC,[12]; Shigella sonnei EW 33 Type I,6.25 µg/mL
same,MIC,[13],6.25 µg/mL
same,MIC,[14],1.56 µg/mL
same,MIC,Glomerella cingulata,1.56 µg/mL
same,MIC,Mucor spinescens IAM Mu3,> 50 µg/mL
same,MIC,[15],50 µg/mL
same,MIC,[16],0.2 µg/mL
same,Therapeutic Effect: Desquamation,[17],effective
same,Therapeutic Effect: Thickening,[17],effective
same,MIC,[18],31.2 µg/mL
same,MIC,[19]; [29],31.2 µg/mL
same,MIC,Erwinia carotovora,> 50 µg/mL
same,MIC,Pellicularia filamentosa,> 50 µg/mL
same,MIC,"[20]; Staphylococcus aureus, 209P",31.2 µg/mL
same,MIC,[21],12.5 µg/mL
same,MIC,Diaporithe citri,0.78 µg/mL
same,MIC,[22],1.56 µg/mL
same,MIC,Proteus vulgaris OX-19,6.25 µg/mL
same,MIC,[23],0.78 µg/mL
same,MIC,[24],> 50 µg/mL
same,MIC,Alternaria kikuchiana,6.25 µg/mL
same,MIC,[25],6.25 µg/mL
same,MIC,[26],25 µg/mL
same,MIC,[27],6.25 µg/mL
same,MIC,Candida alubicans GA-24,0.39 µg/mL
"O=[N+]([O-])c1cc(Cl)n(CC(I)=C(I)I)c1 [1-(2',3',3'-triiodoallyl)-2-chloro-4-nitropyrrole]",MIC,[3],12.5 µg/mL
same,MIC,[4],6.25 µg/mL
same,MIC,[8],12.5 µg/mL
same,MIC,[12]; Shigella sonnei EW 33 Type I,12.5 µg/mL
same,MIC,Mucor spinescens IAM Mu3,3.13 µg/mL
same,MIC,[15],3.13 µg/mL
same,MIC,[16],0.2 µg/mL
same,MIC,[18],6.25 µg/mL
same,MIC,[19]; [29],6.25 µg/mL
same,MIC,"[20]; Staphylococcus aureus, 209P",6.25 µg/mL
same,MIC,[21],12.5 µg/mL
same,MIC,[22],1.56 µg/mL
same,MIC,Proteus vulgaris OX-19,12.5 µg/mL
same,MIC,[23],0.39 µg/mL
same,MIC,[24],1.56 µg/mL
same,MIC,[25],1.56 µg/mL
same,MIC,[26],0.78 µg/mL
"O=[N+]([O-])c1nccn1CC(I)=C(I)I [1-(2',3',3'-triiodoallyl)-2-nitroimidazole]",MIC,[1],25 µg/mL
same,MIC,[2],0.78 µg/mL
same,MIC,Botrytis cinerea,0.19 µg/mL
same,MIC,Cochliobolus miyabeanus,0.78 µg/mL
same,MIC,[4],6.25 µg/mL
same,MIC,[5],1.56 µg/mL
same,MIC,[6],25 µg/mL
same,MIC,[8],3.12 µg/mL
same,MIC,[9],12.5 µg/mL
same,MIC,[10],0.78 µg/mL
same,MIC,[11],12.5 µg/mL
same,MIC,Gibberella fujikuroi,0.78 µg/mL
same,MIC,[12]; Shigella sonnei,3.12 µg/mL
same,MIC,[13]; Corynebacterium michiganense,3.13 µg/mL
same,MIC,[14],0.78 µg/mL
same,MIC,Glomerella cingulata,0.78 µg/mL
same,MIC,Mucor spinescens IAM Mu3,6.25 µg/mL
same,MIC,[15],1.56 µg/mL
same,MIC,[16],0.39 µg/mL
same,MIC,"[19]; ATCC14990, Staphylococcus epidermidis ATCC 14990, read-out: Minimal Inhibitory Conc. (MIC)",12.5 µg/mL
same,MIC,Erwinia carotovora,12.5 µg/mL
same,MIC,Pellicularia filamentosa,25 µg/mL
same,MIC,[20]; Staphylococcus aureus 209P JC-1,12.5 µg/mL
same,MIC,[28],6.25 µg/mL
same,MIC,Diaporithe citri,1.56 µg/mL
same,MIC,[22],0.78 µg/mL
same,MIC,Proteus vulgaris OX-19,6.25 µg/mL
same,MIC,[23],1.56 µg/mL
same,MIC,[24],3.13 µg/mL
same,MIC,Alternaria kikuchiana,0.78 µg/mL
same,MIC,[25],3.13 µg/mL
same,MIC,[26],6.25 µg/mL
same,MIC,[27],1.56 µg/mL
same,MIC,Candida alubicans GA-24,0.78 µg/mL
